Tests used:
Experiment in all cases: viability inhibition at highest dose (% inhibition); higher = more growth inhibition
BT-474 Tam1 = settings: 4-OH-tamoxifen in medium 1 µM; 72 h
Summary of the method: (§1)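 Drug sensitivity score, relative IC50 as the curve midpoint, and top-dose inhibition were derived from logistic dose–response fits in the Breeze pipeline. These fits used CellTiter-Glo viability, read on a PHERAstar and normalised to vehicle-only and positive controls. Breast cancer cell lines and resistant derivatives had been incubated for 72 h at 37 °C in 384-well plates holding library drugs at five concentrations spanning a 10 000-fold range. Resistant lines were grown in medium with 1 μM of the selecting drug.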

T-47D = settings: 72 h
Summary of the method: as §1

ZR-75-1 = settings: 72 h
Summary of the method: as §1

BT-474 = settings: 72 h
Summary of the method: as §1

ZR-75-1 Tam2 = settings: 4-OH-tamoxifen in medium 1 µM; 72 h
Summary of the method: as §1

BT-474 Tam2 = settings: 4-OH-tamoxifen in medium 1 µM; 72 h
Summary of the method: as §1

MCF-7 Tam1 = settings: 4-OH-tamoxifen in medium 1 µM; 72 h
Summary of the method: as §1

MCF-7 = settings: 72 h
Summary of the method: as §1

T-47D Tam2 = settings: 4-OH-tamoxifen in medium 1 µM; 72 h
Summary of the method: as §1

ZR-75-1 Tam1 = settings: 4-OH-tamoxifen in medium 1 µM; 72 h
Summary of the method: as §1

T-47D Tam1 = settings: 4-OH-tamoxifen in medium 1 µM; 72 h
Summary of the method: as §1

Structure (SMILES)	viability inhibition at highest dose (BT-474 Tam1)	viability inhibition at highest dose (T-47D; 4-OH-tamoxifen in medium 0 µM)	viability inhibition at highest dose (T-47D; 4-OH-tamoxifen in medium 1 µM)	viability inhibition at highest dose (ZR-75-1; 4-OH-tamoxifen in medium 0 µM)	viability inhibition at highest dose (ZR-75-1; 4-OH-tamoxifen in medium 1 µM)	viability inhibition at highest dose (BT-474; 4-OH-tamoxifen in medium 0 µM)	viability inhibition at highest dose (BT-474; 4-OH-tamoxifen in medium 1 µM)	viability inhibition at highest dose (ZR-75-1 Tam2)	viability inhibition at highest dose (BT-474 Tam2)	viability inhibition at highest dose (MCF-7 Tam1)	viability inhibition at highest dose (MCF-7; 4-OH-tamoxifen in medium 0 µM)	viability inhibition at highest dose (MCF-7; 4-OH-tamoxifen in medium 1 µM)	viability inhibition at highest dose (T-47D Tam2)	viability inhibition at highest dose (ZR-75-1 Tam1)	viability inhibition at highest dose (T-47D Tam1)
Oc1ccc2c(c1)CC[C@H](c1ccccc1)[C@@H]2c1ccc(OCCN2CCCC2)cc1 [Lasofoxifene] (drug 1000 nM)	34.3	-21.7	-10.6	-9.97	-2.22	-9.14	24.2	2.17	12.4	-2.47	3.8	25	5.06	3.54	2.67
Cc1cnc(NC(=O)Nc2cc(Br)c(C)cc2OC[C@@H]2CNCCO2)cn1 (drug 1000 nM)	5	-9.68	-8.57	-7.46	-6.55	-10.6	0.148	-1.67	-6.01	-4.01	26.1	16.2	-5.37	-1.46	-0.37
CCCS(=O)(=O)Nc1ccc(F)c(C(=O)c2c[nH]c3ncc(-c4ccc(Cl)cc4)cc23)c1F [Vemurafenib (PLX4032)] (drug 10000 nM)	-8.2	-10.9	17.5	-0.616	10.2	-0.692	16.2	0.975	-15	3.76	7.54	-8.65	21.7	8.49	-8.15
Cc1ccc(C(=O)N(CCCN)[C@@H](c2oc3cc(Cl)ccc3c(=O)c2Cc2ccccc2)C(C)C)cc1 (drug 100 nM)	-6.24	-16.7	-5.16	-10.8	-9.18	-10.2	-22.8	-13.3	-0.695	-9.67	5.45	19.8	7.13	-7.2	-2.81
CN1CCC(COc2cnc(-c3cccc(Cn4nc(-c5cccc(C#N)c5)ccc4=O)c3)nc2)CC1 (drug 1000 nM)	4.43	-10.4	-5.78	-2.72	2.17	2.72	-6.04	-3.94	8.15	7.93	-4.34	13.2	-1.11	0.277	57.5
CC(C)C[C@H](NC(=O)[C@H](Cc1ccccc1)NC(=O)c1cnccn1)B(O)O [Bortezomib] (drug 1000 nM)	98.8	94.5	93.6	71	64	62.6	97.9	64.6	98.7	73.6	74.1	92.4	96.2	71.5	97.2
Cn1c(=O)n(-c2ccc(C(C)(C)C#N)cc2)c2c3cc(-c4cnc5ccccc5c4)ccc3ncc21 [Dactolisib (NVP-BEZ235)] (drug 1000 nM)	40.8	54.9	69.7	51	41.8	27.6	39.4	57	29.2	32.4	67.7	45	29.7	49.4	49.1

Source: the supplement of paper PMC4932681
